Literature values as cited in PubChem BioAssay AID1259409 (Chemical Carcinogenesis Research Information System (CCRIS), 2018).
Where a SMILES comes first, the peptide text is derived from it.

Test system: rodent chemically induced tumor inhibition, incidence and multiplicity
Experiment: CCRIS tumor inhibitor studies

C[C@@]12C=Cc3occc3[C@H]1CC[C@@]13C[C@@H](CC[C@H]12)[C@@](O)(CO)C3
tumour outcome (control, treated, inhibition, significance) (Carcinogen: 7,12-DIMETHYLBENZ[A]ANTHRACENE, 57-97-6, Dose [Inhibitor]: 0, 0.2 G/KG OF DIET OF 50:50 MIXTURE OF KAHWEOL AND CAFESTOL FOR 14 WK BEGINNING 1 WK PRIOR TO CARCINOGEN TREATMENT (STU, Route [Inhibitor]: ORAL, Species: HAMSTER, Strain/Sex: SYRIAN/FEMALE, Target Tissue: Type of Lesion: BUCCAL POUCH: TUMOR, Dose [Carcinogen]: 0.5% SOLUTION IN MINERAL OIL PAINTED ON LEFT BUCCAL POUCH 3/WK FOR 13 WK, Promoter: NONE USED): 14/14 (100%), 14/14 (100%), 0%, not significant
tumour outcome (control, treated, inhibition, significance) (Carcinogen: 7,12-DIMETHYLBENZ[A]ANTHRACENE, 57-97-6, Dose [Inhibitor]: 0, 2 G/KG OF DIET OF 50:50 MIXTURE OF KAHWEOL AND CAFESTOL FOR 14 WK BEGINNING 1 WK PRIOR TO CARCINOGEN TREATMENT (STUDY, Route [Inhibitor]: ORAL, Species: HAMSTER, Strain/Sex: SYRIAN/FEMALE, Target Tissue: Type of Lesion: BUCCAL POUCH: TUMOR, Dose [Carcinogen]: 0.5% SOLUTION IN MINERAL OIL PAINTED ON LEFT BUCCAL POUCH 3/WK FOR 13 WK, Promoter: NONE USED): 14/14 (100%), 14/15 (93%), 7%, not significant

Oc1cc(O)c2c(c1)O[C@H](c1ccc(O)c(O)c1)[C@H](O)C2
tumour outcome (control, treated, inhibition, significance) (Carcinogen: 3-METHYLCHOLANTHRENE, 56-49-5, Dose [Inhibitor]: 0, 2 MG IN 0.1 ML STERILE SALINE 1/D FOR 5 CONSECUTIVE D BEGINNING 30 D POST CARCINOGEN TREATMENT (STUDY DURATION: 20 WK, Route [Inhibitor]: GAVAGE, Species: MOUSE, Strain/Sex: SWISS/MALE, Target Tissue: Type of Lesion: INJECTION SITE: SARCOMA, Dose [Carcinogen]: 745 NMOL IN 0.1 ML DMSO 1/D FOR 2 CONSECUTIVE D, Promoter: NONE USED): 100%, 33%, 67%, p<0.01
tumour outcome (control, treated, inhibition, significance) (Carcinogen: 7,12-DIMETHYLBENZ[A]ANTHRACENE, 57-97-6, Dose [Inhibitor]: 0, 2 MG IN 0.1 ML DMSO 2/WK FOR 6 WK ADMINISTERED 30 MIN POST EACH PROMOTER DOSE (STUDY DURATION: 12 WK), Route [Inhibitor]: DERMAL, Species: MOUSE, Strain/Sex: SWISS/MALE, Target Tissue: Type of Lesion: SKIN: PAPILLOMA, Dose [Carcinogen]: 450 NMOL IN 0.1 ML DMSO ONCE, Promoter: CROTON OIL, 8001-28-3): 17/30 (57%), 14/30 (47%), 18%, not significant

NCCCC[C@H](N)C(=O)N[C@@H](CCC(=O)O)C(=O)O (H-Lys-Glu-OH)
tumour outcome (control, treated, inhibition, significance) (Carcinogen: N-BUTYL-N-(4-HYDROXYBUTYL)NITROSAMINE, 3817-11-6, Dose [Inhibitor]: 0, 30 UG/ANIMAL IN RIGHT THIGH DOES OF 1 UG/KG BW 1/D FOR 5 D WITH 4 WK INTERVALS FOR 6 MO (STUDY DURATION: 49 WK), Route [Inhibitor]: INTRAMUSCULAR, Species: RAT, Strain/Sex: ALBINO/MALE, Target Tissue: Type of Lesion: URINARY BLADDER: BENIGN TUMOR, Dose [Carcinogen]: 0.04% IN DRINKING WATER FOR FIRST 12 WK): 13/49 (27%), 14/50 (28%), -4%, not calculated
tumour outcome (control, treated, inhibition, significance) (Carcinogen: N-BUTYL-N-(4-HYDROXYBUTYL)NITROSAMINE, 3817-11-6, Dose [Inhibitor]: 0, 30 UG/ANIMAL IN RIGHT THIGH DOES OF 1 UG/KG BW 1/D FOR 5 D WITH 4 WK INTERVALS FOR 6 MO (STUDY DURATION: 49 WK), Route [Inhibitor]: INTRAMUSCULAR, Species: RAT, Strain/Sex: ALBINO/MALE, Target Tissue: Type of Lesion: URINARY BLADDER: IN SITU CARCINOMA, Dose [Carcinogen]: 0.04% IN DRINKING WATER FOR FIRST 12 WK): 11/49 (22%), 4/50 (8%), 64%, not calculated

Cc1csc(NC(=O)C(C(=O)OC(C)C)=C2SCS2)n1
tumour outcome (control, treated, inhibition, significance) (Carcinogen: BENZO[A]PYRENE [50-32-8], Dose [Inhibitor]: 0, 150 MG/KG BW IN TRIOCTANOIN 1 D AND 2 HR PRIOR TO CARCINOGEN DOSE (STUDY DURATION: 21 WK), Route [Inhibitor]: GAVAGE, Species: MOUSE, Strain/Sex: CD-1/FEMALE, Target Tissue: Type of Lesion: SKIN: PAPILLOMA, Dose [Carcinogen]: 0.3 UMOL IN 0.2 ML ACETONE ONCE, Promoter: 12-O-TETRADECANOYLPHORBOL-13-ACETATE [16561-29-8]): 92%, 73%, 21%, not calculated
tumour outcome (control, treated, inhibition, significance) (Carcinogen: BENZO[A]PYRENE [50-32-8], Dose [Inhibitor]: 150 MG/KG IN 10 µL TRIOCTANOIN ONCE 1 D AND 2 HR PRIOR TO CARCINOGEN DOSE (STUDY DURATION: 21 WK), Route [Inhibitor]: GAVAGE, Species: MOUSE, Strain/Sex: CD-1/FEMALE, Target Tissue: Type of Lesion: SKIN: PAPILLOMA, Dose [Carcinogen]: 0.3 UMOL IN 0.2 ML ACETONE ONCE (STUDY DURATION: 21 WK), Promoter: 12-O-TETRADECANOYLPHORBOL-13-ACETATE [16561-29-8]): 92%, 75%, 18%, not calculated
tumour outcome (control, treated, inhibition, significance) (Carcinogen: VINYL CARBAMATE, 15805-73-9, Dose [Inhibitor]: 0, 150 MG/KG BW ONCE AT 2 HR AND 1 D PRIOR TO CARCINOGEN DOSE (STUDY DURATION: 22 WK), Route [Inhibitor]: GAVAGE, Species: MOUSE, Strain/Sex: CD-1/FEMALE, Target Tissue: Type of Lesion: SKIN: PAPILLOMA, Dose [Carcinogen]: 11.5 UMOL IN 0.2 ML ACETONE ONCE, Promoter: 12-O-TETRADECANOYLPHORBOL-13-ACETATE, 16561-29-8): 58%, 37%, 36%, not calculated

CCCCCCCCCCCCC/C=C/[C@@H](O)[C@@H](N)CO
tumour outcome (control, treated, inhibition, significance) (Carcinogen: 7,12-DIMETHYLBENZ[A]ANTHRACENE, 57-97-6, Dose [Inhibitor]: 0, 0.01 UMOL IN 0.2 ML ACETONE 2/WK FOR 15 WK APPLIED 30 MIN PRIOR TO EACH PROMOTER DOSE (STUDY DURATION: 50 WK), Route [Inhibitor]: DERMAL, Species: MOUSE, Strain/Sex: SENCAR/FEMALE, Target Tissue: Type of Lesion: SKIN: CARCINOMA, Dose [Carcinogen]: 10 NMOL ONCE, Promoter: 12-O-TETRADECANOYLPHORBOL-13-ACETATE, 16561-29-8): 87%, 77%, 11%, not significant
tumour outcome (control, treated, inhibition, significance) (Carcinogen: 7,12-DIMETHYLBENZ[A]ANTHRACENE, 57-97-6, Dose [Inhibitor]: 0, 0.01 UMOL IN 0.2 ML ACETONE 2/WK FOR 15 WK APPLIED 30 MIN PRIOR TO EACH PROMOTER DOSE (STUDY DURATION: 50 WK), Route [Inhibitor]: DERMAL, Species: MOUSE, Strain/Sex: SENCAR/FEMALE, Target Tissue: Type of Lesion: SKIN: PAPILLOMA, Dose [Carcinogen]: 10 NMOL ONCE, Promoter: 12-O-TETRADECANOYLPHORBOL-13-ACETATE, 16561-29-8): 94%, 88%, 6%, not significant
tumour outcome (control, treated, inhibition, significance) (Carcinogen: 7,12-DIMETHYLBENZ[A]ANTHRACENE, 57-97-6, Dose [Inhibitor]: 0, 0.05 UMOL IN 0.2 ML ACETONE 2/WK FOR 15 WK APPLIED 30 MIN PRIOR TO EACH PROMOTER DOSE (STUDY DURATION: 50 WK), Route [Inhibitor]: DERMAL, Species: MOUSE, Strain/Sex: SENCAR/FEMALE, Target Tissue: Type of Lesion: SKIN: CARCINOMA, Dose [Carcinogen]: 10 NMOL ONCE, Promoter: 12-O-TETRADECANOYLPHORBOL-13-ACETATE, 16561-29-8): 87%, 82%, 6%, not significant
tumour outcome (control, treated, inhibition, significance) (Carcinogen: 7,12-DIMETHYLBENZ[A]ANTHRACENE, 57-97-6, Dose [Inhibitor]: 0, 0.05 UMOL IN 0.2 ML ACETONE 2/WK FOR 15 WK APPLIED 30 MIN PRIOR TO EACH PROMOTER DOSE (STUDY DURATION: 50 WK), Route [Inhibitor]: DERMAL, Species: MOUSE, Strain/Sex: SENCAR/FEMALE, Target Tissue: Type of Lesion: SKIN: PAPILLOMA, Dose [Carcinogen]: 10 NMOL ONCE, Promoter: 12-O-TETRADECANOYLPHORBOL-13-ACETATE, 16561-29-8): 94%, 91%, 3%, not significant
tumour outcome (control, treated, inhibition, significance) (Carcinogen: 7,12-DIMETHYLBENZ[A]ANTHRACENE, 57-97-6, Dose [Inhibitor]: 0, 0.5 UMOL IN 0.2 ML ACETONE 2/WK FOR 15 WK APPLIED 30 MIN PRIOR TO EACH PROMOTER DOSE (STUDY DURATION: 50 WK), Route [Inhibitor]: DERMAL, Species: MOUSE, Strain/Sex: SENCAR/FEMALE, Target Tissue: Type of Lesion: SKIN: CARCINOMA, Dose [Carcinogen]: 10 NMOL ONCE, Promoter: 12-O-TETRADECANOYLPHORBOL-13-ACETATE, 16561-29-8): 87%, 84%, 3%, not significant
tumour outcome (control, treated, inhibition, significance) (Carcinogen: 7,12-DIMETHYLBENZ[A]ANTHRACENE, 57-97-6, Dose [Inhibitor]: 0, 0.5 UMOL IN 0.2 ML ACETONE 2/WK FOR 15 WK APPLIED 30 MIN PRIOR TO EACH PROMOTER DOSE (STUDY DURATION: 50 WK), Route [Inhibitor]: DERMAL, Species: MOUSE, Strain/Sex: SENCAR/FEMALE, Target Tissue: Type of Lesion: SKIN: PAPILLOMA, Dose [Carcinogen]: 10 NMOL ONCE, Promoter: 12-O-TETRADECANOYLPHORBOL-13-ACETATE, 16561-29-8): 94%, 85%, 10%, not significant
tumour outcome (control, treated, inhibition, significance) (Carcinogen: 7,12-DIMETHYLBENZ[A]ANTHRACENE, 57-97-6, Dose [Inhibitor]: 0, 10 UMOL IN 0.2 ML ACETONE 2/WK FOR 20 WK APPLIED 30 MIN PRIOR TO EACH PROMOTER DOSE (STUDY DURATION: 50 WK), Route [Inhibitor]: DERMAL, Species: MOUSE, Strain/Sex: SENCAR/FEMALE, Target Tissue: Type of Lesion: SKIN: CARCINOMA, Dose [Carcinogen]: 10 NMOL ONCE, Promoter: 12-O-TETRADECANOYLPHORBOL-13-ACETATE, 16561-29-8): 47%, 56%, -19%, not significant
tumour outcome (control, treated, inhibition, significance) (Carcinogen: 7,12-DIMETHYLBENZ[A]ANTHRACENE, 57-97-6, Dose [Inhibitor]: 0, 10 UMOL IN 0.2 ML ACETONE 2/WK FOR 20 WK APPLIED 30 MIN PRIOR TO EACH PROMOTER DOSE (STUDY DURATION: 50 WK), Route [Inhibitor]: DERMAL, Species: MOUSE, Strain/Sex: SENCAR/FEMALE, Target Tissue: Type of Lesion: SKIN: PAPILLOMA, Dose [Carcinogen]: 10 NMOL ONCE, Promoter: 12-O-TETRADECANOYLPHORBOL-13-ACETATE, 16561-29-8): 93%, 96%, -3%, not significant
